The target of assay [1] is T1, human CTPS1 (Homo sapiens, UniProt P17812).
T1 construct: purchased Proteros biostructures GmbH
T1 sequence (P17812 1-591): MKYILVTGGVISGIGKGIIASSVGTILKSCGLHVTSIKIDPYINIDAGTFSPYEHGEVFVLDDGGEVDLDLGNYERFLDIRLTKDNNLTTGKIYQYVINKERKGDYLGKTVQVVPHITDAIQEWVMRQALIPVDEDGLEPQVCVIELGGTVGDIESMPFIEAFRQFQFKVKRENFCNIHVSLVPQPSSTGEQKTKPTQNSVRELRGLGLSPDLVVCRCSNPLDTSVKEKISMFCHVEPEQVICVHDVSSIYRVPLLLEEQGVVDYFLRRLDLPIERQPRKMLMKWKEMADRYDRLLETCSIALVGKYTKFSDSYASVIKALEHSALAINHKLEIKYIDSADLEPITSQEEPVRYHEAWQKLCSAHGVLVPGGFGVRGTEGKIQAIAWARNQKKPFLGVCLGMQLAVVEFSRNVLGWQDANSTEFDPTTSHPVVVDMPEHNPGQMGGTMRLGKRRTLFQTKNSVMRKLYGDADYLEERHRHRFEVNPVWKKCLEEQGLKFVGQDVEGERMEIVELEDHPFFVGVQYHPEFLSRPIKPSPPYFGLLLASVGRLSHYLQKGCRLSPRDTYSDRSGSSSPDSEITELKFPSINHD
In words: Human CTPS1 enzyme inhibition (ADP-Glo Max assay). The assay is classed as biochemical. On the procedure: The enzyme inhibitory activities of compounds invented against the target of interest were determined using the ADP-Glo™ Max assay (Promega, UK). Assays for human CTPS1 were performed in 1× assay buffer containing 50 mM Tris, 10 mM MgCl2, 0.01% Tween-20, pH to 8.0 accordingly. Finally, immediately before use, L-cysteine was added to the 1× assay buffer to a final concentration of 2 mM. All reagents are from Sigma-Aldrich unless specified otherwise. Human full length active C-terminal FLAG-Hiss-tag CTPS1 (UniProtKB—P17812, CTPS[1-591]-[…]) was obtained from Proteros biostructures GmbH.
3× human CTPS1 protein was prepared in 1× assay buffer to the final working protein concentration required for the reaction. A 2 uL volume per well of 3× human CTPS1 protein was mixed with 2 uL per well of 3× test compound (compound prepared in 1× assay buffer to an appropriate final 3× compound concentration respective to the concentration response curve designed for the compounds under test) for 10 minutes at 25° C. The enzymatic reaction was then initiated by addition of a 2 uL per well volume of a pre-mixed substrate mix (UltraPure ATP from ADP-Glo™ Max kit (0.31 mM), GTP (0.034 mM), UTP (0.48 mM) and L-glutamine (0.186 mM)) and the mixture was incubated for an appropriate amount of time within the determined linear phase of the reaction at 25° C. under sealed plate conditions with constant agitation at 500 revolutions per minute (rpm). ADP-Glo™ Max reagent was added for 60 minutes (6 μL per well) and subsequently ADP-Glo™ Max development reagent was added for 60 minutes (12 uL per well) prior to signal detection in a microplate reader (EnVision® Multilabel Reader, Perkin Elmer). Following each reagent addition over the course of the assay, assay plates were pulse centrifuged for 30 seconds at 500 rpm.
In all cases, the enzyme converts ATP to ADP and the ADP-Glo™ Max reagent subsequently depletes any remaining endogenous ATP in the reaction system. The ADP-Glo™ Max detection reagent converts the ADP that has been enzymatically produced back into ATP and using ATP as a substrate together with luciferin for the enzyme luciferase, light is generated which produces a detectable luminescence. […] The percentage inhibition produced by each concentration of compound was calculated using the equation shown below: […]
(§1) Percentage inhibition was then plotted against compound concentration, and the 50% inhibitory concentration (IC50) was determined from the resultant concentration-response curve.
On the technique in general: In ADP-Glo the light output rises with the ADP produced.

In assay [2] the test system is human CTPS1 versus CTPS2. In words: Human CTPS1 versus CTPS2 selectivity assessment by RapidFire/MS analysis. Particulars: RapidFire/MS IC50 ratio. The assay is classed as biochemical. On the procedure:
Human CTPS1 versus CTPS2 Selectivity Assessment by RapidFire/MS Analysis.
The enzyme inhibitory activities against each target isoform of interest may be determined for the compounds of the invention using an optimised RapidFire high-throughput mass spectrometry (RF/MS) assay format. RF/MS assays for both human CTPS1 and CTPS2 may be performed in assay buffer consisting of 50 mM HEPES (Merck), 20 mM MgCl2, 5 mM KCl, 1 mM DTT, 0.01% Tween-20, pH to 8.0 accordingly. Human full-length active C-terminal FLAG-His-tag CTPS1 (UniProtKB—P17812, CTPS[1-591]-[…]) may be obtained from Proteros biostructures GmbH. Human full length active C-terminal FLAG-His-Avi tagged CTPS2 (UniProtKB-Q9NRF8, CTPS2 [1-586]-[…]) may be obtained from Harker Bio.
Human CTPS (1 or 2) protein may be prepared in 1× assay buffer to the final working protein concentration required for the reaction. A 2 uL volume per well of 2×CTPS (1 or 2) protein may be mixed with 40 nL of compound using acoustic (ECHO) delivery and incubated for 10 minutes at 25° C. Each isoform enzymatic reaction may be subsequently initiated by addition of 2 uL per well of a 2× substrate mix in assay buffer. For hCTPS1: ATP (0.3 mM), UTP (0.2 mM), GTP (0.07 mM) and L-glutamine (0.1 mM). For hCTPS2: ATP (0.1 mM), UTP (0.04 mM), GTP (0.03 mM) and L-glutamine (0.1 mM). Each mixture may be incubated for an appropriate amount of time per isoform within the determined linear phase of the reaction at 25′C. A 60 uL volume of stop solution (1% formic acid with 0.5 uM ^13C9-^15N3-CTP in H2O) may be added and the plate immediately heat-sealed and centrifuged for 10 minutes at 4,000 rpm. Following centrifugation, plates may be loaded onto the Agilent RapidFire microfluidic solid phase extraction system coupled to an API4000 triple quadrupole mass spectrometer (RF/MS) for analysis.
In all cases, the enzyme converts UTP to CTP. Highly specific and sensitive multiple reaction monitoring (MRM) MS methods may be optimised for the detection of the enzymatic reaction product, CTP, and the stable isotope labelled product standard ^13C9-^15N3-CTP. Readout for data analysis may be calculated as the ratio between the peak area of the product CTP and the internal standard ^13C9-^15N3-CTP. For data reporting, the following equation may be used: […]
For each screening plate, the means of the negative (DMSO) and positive control values were used for the calculation of the respective assay window (S/B) and Z′ values. The median of the respective control values was used for calculation of percent inhibition according to the following equation: […]
as §1
Fold selectivity between CTPS1 and CTPS2 was subsequently calculated according to the following equation: […]

Where [3] appears, read: Table 25, compounds wherein R1 is C1-5fluoroalkyl, read-out: CTPS1 (Human CTPS1 Enzyme Inhibition data grouped by potency range).

Read-outs that look alike come from different tables or passages of the source.

Turning to `CCOc1cncc(-c2ccc(NC(=O)C3(c4ccnc(NS(=O)(=O)CC(F)F)n4)CCOCC3)nc2)n1` [Example P271, 4-(2-((2,2-difluoroethyl)sulfonamido)pyrimidin-4-yl)-N-(5-(6-ethoxypyrazin-2-yl)pyridin-2-yl)tetrahydro-2H-pyran-4-carboxamide], in assay [1] (setting [3]), the IC50 is at most 100 nM.

Regarding `CCOc1cncc(-c2ccc(NC(=O)C(F)(CC)c3ccnc(NS(=O)(=O)CC(F)F)n3)nc2)n1` (stereo not drawn) [Example P284, 2-(2-((2,2-difluoroethyl)sulfonamido)pyrimidin-4-yl)-N-(5-(6-ethoxypyrazin-2-yl)pyridin-2-yl)-2-fluorobutanamide], the IC50 in assay [1] (setting [3]) was at most 100 nM.

Take `CCOc1cncc(-c2ccc(NC(=O)C3(c4ccnc(NS(=O)(=O)N(C)C)n4)CCOCC3)nc2)n1` [Example P248]: in assay [1] (Table 24, read-out: CTPS1 (Human CTPS1 Enzyme Inhibition data grouped by potency range)), the IC50 is 100 to 1000 nM. In addition, in assay [2] (Table 27), the “Selectivity (fold selectivity between CTPS1 and CTPS2)” value is on record as “+++ (>60 fold (+++))”.

In the case of `CC(C)Oc1cncc(-c2ccc(NC(=O)C(C)(C)c3ccnc(NS(=O)(=O)C4CC4)n3)nc2)n1` [Example P9], the IC50 in assay [1] (Table 23, read-out: CTPS1 (Human CTPS1 Enzyme Inhibition data grouped by potency range)) is at most 100 nM. In addition, in assay [2] (Table 26), the “Selectivity (fold selectivity between CTPS1 and CTPS2)” value is “+++ (>60 fold (+++))”.
